Laboratory results reported in ChEMBL document CHEMBL5537115, “New broad-spectrum and potent antibacterial agents with dual-targeting mechanism: Promoting FtsZ polymerization and disrupting bacterial membranes” (Eur J Med Chem, 2024).
Converted amounts (≈) assume the structure as drawn.

Key:
Assay type in all cases: functional
[1] = system: Bacillus subtilis; test: Antibacterial activity against penicillin-susceptible Bacillus subtilis ATCC9372 assessed as bacterial growth inhibition incubated for 20 hrs by CLSI based broth microdilution method
[2] = system: Escherichia coli; test: Antibacterial activity against wild-type Escherichia coli BW25113 assessed as bacterial growth inhibition incubated for 20 hrs by CLSI based broth microdilution method
[3] = system: Staphylococcus epidermidis; test: Antibacterial activity against penicillin-resistant Staphylococcus epidermidis clinical isolate assessed as bacterial growth inhibition incubated for 20 hrs by CLSI based broth microdilution method
[4] = system: Staphylococcus aureus; test: Antibacterial activity against erythromycin-susceptible Staphylococcus aureus ATCC25923 assessed as bacterial growth inhibition incubated for 20 hrs by CLSI based broth microdilution method
[5] = system: Enterococcus faecalis; test: Antibacterial activity against vancomycin-susceptible Enterococcus faecalis ATCC29212 assessed as bacterial growth inhibition incubated for 20 hrs by CLSI based broth microdilution method
[6] = system: Staphylococcus aureus; test: Antibacterial activity against penicillin-resistant Staphylococcus aureus ATCC31007 assessed as bacterial growth inhibition incubated for 20 hrs by CLSI based broth microdilution method
[7] = system: Acinetobacter baumannii; test: Antibacterial activity against Acinetobacter baumannii ATCC19606 assessed as bacterial growth inhibition incubated for 20 hrs by CLSI based broth microdilution method
[8] = system: Enterococcus faecium; test: Antibacterial activity against vancomycin-susceptible Enterococcus faecium ATCC19434 assessed as bacterial growth inhibition incubated for 20 hrs by CLSI based broth microdilution method
[9] = system: Klebsiella pneumoniae; test: Antibacterial activity against Klebsiella pneumoniae ATCC BAA-1902 assessed as bacterial growth inhibition incubated for 20 hrs by CLSI based broth microdilution method
[10] = system: Streptococcus pyogenes; test: Antibacterial activity against erythromycin-susceptible Streptococcus pyogenes 1 assessed as bacterial growth inhibition incubated for 20 hrs by CLSI based broth microdilution method
[11] = system: Streptococcus pyogenes; test: Antibacterial activity against erythromycin-resistant Streptococcus pyogenes 2 clinical isolate assessed as bacterial growth inhibition incubated for 20 hrs by CLSI based broth microdilution method
[12] = system: Bacillus pumilus; test: Antibacterial activity against penicillin-susceptible Bacillus pumilus CMCC63202 assessed as bacterial growth inhibition incubated for 20 hrs by CLSI based broth microdilution method
[13] = system: Escherichia coli; test: Antibacterial activity against penicillin-susceptible Escherichia coli ATCC25922 assessed as bacterial growth inhibition incubated for 20 hrs by CLSI based broth microdilution method
[14] = system: Staphylococcus aureus; test: Antibacterial activity against methicillin-resistant Staphylococcus aureus ATCC43300 assessed as bacterial growth inhibition incubated for 20 hrs by CLSI based broth microdilution method
[15] = system: Staphylococcus aureus; test: Antibacterial activity against Staphylococcus aureus clinical isolate assessed as bacterial growth inhibition incubated for 20 hrs by CLSI based broth microdilution method
[16] = system: Enterococcus faecium; test: Antibacterial activity against vancomycin-resistant Enterococcus faecium ATCC51559 assessed as bacterial growth inhibition incubated for 20 hrs by CLSI based broth microdilution method
[17] = system: Enterococcus faecalis; test: Antibacterial activity against vancomycin-resistant Enterococcus faecalis ATCC51299 assessed as bacterial growth inhibition incubated for 20 hrs by CLSI based broth microdilution method

Row | SMILES | MIC [1] | MIC [2] | MIC [3] | MIC [4] | MIC [5] | MIC [6] | MIC [7] | MIC [8] | MIC [9] | MIC [10] | MIC [11] | MIC [12] | MIC [13] | MIC [14] | MIC [15] | MIC [16] | MIC [17]
1 | Cc1ccc(/C=C/c2cc(-c3ccccc3)c[n+](C)c2-c2ccccc2)cc1.[I-] | 2 µg/mL | > 64 µg/mL | 32 µg/mL | 1 µg/mL | 16 µg/mL | 32 µg/mL | 32 µg/mL | 32 µg/mL | > 64 µg/mL | 4 µg/mL | 4 µg/mL | 16 µg/mL | > 64 µg/mL | 4 µg/mL | 2 µg/mL | 16 µg/mL | 32 µg/mL
2 | C[n+]1cc(-c2ccccc2)c(/C=C/c2ccc(Cl)c(Cl)c2)cc1-c1ccc(C(C)(C)C)cc1.[I-] | 2 µg/mL | 8 µg/mL | 2 µg/mL | 2 µg/mL | 2 µg/mL | 2 µg/mL | 4 µg/mL | 1 µg/mL | > 64 µg/mL | 8 µg/mL | 4 µg/mL | 2 µg/mL | > 64 µg/mL | 1 µg/mL | 1 µg/mL | 1 µg/mL | 2 µg/mL
3 | CCCCCOc1ccc(/C=C/c2cc(-c3ccccc3)[n+](C)cc2-c2ccccc2)cc1.[I-] | 0.5 µg/mL | 2 µg/mL | 1 µg/mL | 0.5 µg/mL | 2 µg/mL | 1 µg/mL | 2 µg/mL | 0.5 µg/mL | 4 µg/mL | 2 µg/mL | 2 µg/mL | 0.5 µg/mL | 4 µg/mL | 1 µg/mL | 0.5 µg/mL | 1 µg/mL | 1 µg/mL
4 | C[n+]1cc(-c2ccccc2)cc(/C=C/c2ccc(Cl)cc2)c1-c1ccccc1.[I-] | 4 µg/mL | > 64 µg/mL | 8 µg/mL | 2 µg/mL | 16 µg/mL | 16 µg/mL | 8 µg/mL | 16 µg/mL | > 64 µg/mL | 4 µg/mL | 4 µg/mL | 8 µg/mL | 64 µg/mL | 4 µg/mL | 2 µg/mL | 16 µg/mL | 16 µg/mL
5 | C[n+]1cc(-c2ccccc2)cc(/C=C/c2cccc(Br)c2)c1-c1ccccc1.[I-] | 4 µg/mL | > 64 µg/mL | 8 µg/mL | 4 µg/mL | 16 µg/mL | 16 µg/mL | 16 µg/mL | 16 µg/mL | 64 µg/mL | 4 µg/mL | 8 µg/mL | 16 µg/mL | 64 µg/mL | 4 µg/mL | 2 µg/mL | 16 µg/mL | 16 µg/mL
6 | C[n+]1cc(-c2ccccc2)c(/C=C/c2ccc(F)cc2)cc1-c1ccccc1.[I-] | 0.5 µg/mL | 8 µg/mL | 2 µg/mL | 0.125 µg/mL | 4 µg/mL | 4 µg/mL | 8 µg/mL | 4 µg/mL | 32 µg/mL | 2 µg/mL | 2 µg/mL | 2 µg/mL | 8 µg/mL | 1 µg/mL | 1 µg/mL | 8 µg/mL | 2 µg/mL
7 | C[n+]1cc(-c2ccccc2)c(/C=C/c2ccc(C(C)(C)C)cc2)cc1-c1ccc2ccccc2c1.[I-] | 0.5 µg/mL | 4 µg/mL | 2 µg/mL | 1 µg/mL | 1 µg/mL | 2 µg/mL | 1 µg/mL | 2 µg/mL | 8 µg/mL | 1 µg/mL | 4 µg/mL | 0.5 µg/mL | 64 µg/mL | 1 µg/mL | 0.5 µg/mL | 2 µg/mL | 2 µg/mL
8 | C[n+]1cc(-c2ccccc2)cc(/C=C/c2ccc(C(F)(F)F)cc2)c1-c1ccccc1.[I-] | 2 µg/mL | > 64 µg/mL | 8 µg/mL | 1 µg/mL | 8 µg/mL | 16 µg/mL | 16 µg/mL | 16 µg/mL | > 64 µg/mL | 4 µg/mL | 2 µg/mL | 8 µg/mL | > 64 µg/mL | 4 µg/mL | 2 µg/mL | 8 µg/mL | 16 µg/mL
9 | C[n+]1cc(-c2ccccc2)c(/C=C/c2ccc(F)cc2)cc1-c1ccc(C(C)(C)C)cc1.[I-] | 1 µg/mL | 8 µg/mL | 2 µg/mL | 1 µg/mL | 2 µg/mL | 1 µg/mL | 4 µg/mL | 2 µg/mL | 8 µg/mL | 2 µg/mL | 4 µg/mL | 1 µg/mL | 8 µg/mL | 1 µg/mL | 1 µg/mL | 2 µg/mL | 2 µg/mL
10 | C[n+]1cc(-c2ccccc2)cc(/C=C/c2ccc(C(C)(C)C)cc2)c1-c1ccccc1.[I-] | 0.5 µg/mL | 16 µg/mL | 2 µg/mL | 0.25 µg/mL | 4 µg/mL | 4 µg/mL | 4 µg/mL | 2 µg/mL | 32 µg/mL | 8 µg/mL | 2 µg/mL | 2 µg/mL | 16 µg/mL | 1 µg/mL | 2 µg/mL | 2 µg/mL | 1 µg/mL
11 | CN[C@H](CC(C)C)C(=O)N[C@H]1C(=O)N[C@@H](CC(N)=O)C(=O)N[C@H]2C(=O)N[C@H]3C(=O)N[C@H](C(=O)N[C@H](C(=O)O)c4cc(O)cc(O)c4-c4cc3ccc4O)[C@H](O)c3ccc(c(Cl)c3)Oc3cc2cc(c3O[C@@H]2O[C@H](CO)[C@@H](O)[C@H](O)[C@H]2O[C@H]2C[C@](C)(N)[C@H](O)[C@H](C)O2)Oc2ccc(cc2Cl)[C@H]1O [VANCOMYCIN] | 0.5 µg/mL (≈ 0.345 µM) | > 64 µg/mL | – | – | – | – | 64 µg/mL (≈ 44.2 µM) | – | > 64 µg/mL | 0.25 µg/mL (≈ 0.173 µM) | 1 µg/mL (≈ 0.69 µM) | 2 µg/mL (≈ 1.38 µM) | > 64 µg/mL | – | – | > 64 µg/mL | > 64 µg/mL
12 | CC(=O)Nc1ccc(/C=C/c2cc(-c3ccc4ccccc4c3)[n+](C)cc2-c2ccccc2)cc1.[I-] | 1 µg/mL | > 64 µg/mL | – | 0.5 µg/mL | 16 µg/mL | – | 32 µg/mL | 32 µg/mL | > 64 µg/mL | – | – | 16 µg/mL | > 64 µg/mL | – | 1 µg/mL | – | –
